# Source: US12226405B2, “Compounds and compositions for inhibiting the activity of HIF2-alpha and their methods of use” (Novartis AG, priority 2020, dated 2025)
# pIC50: −log10 of the molar value.
# Tests used:
# [1] = test system: HIF2α-regulated expression of the endogenous target gene hEGLN3 in 786-O cells; assay: Cellular iScript assay for HIF2α (quantitative RT-PCR of hEGLN3); format: cell-based, human; conditions: Homo sapiens, 786-0, 48 hours incubation
# Summary of the method: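 786-O cells were exposed to eleven 2-fold compound dilutions for 48 h at 37° C. Lysates underwent one-step TaqMan qRT-PCR for hEGLN3 with beta-actin as reference; 2^(−ΔΔCt) versus DMSO, as % of control, was fit with a four-parameter model to give IC50.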
# [2] = test system: HIF2α-dependent transcription in 786-O-HRE-Luc cells; assay: In vitro cellular hypoxia response element (HRE) reporter gene assay (RGA) for HIF2α; format: cell-based, human; conditions: Homo sapiens, 24 hours incubation
# Summary of the method: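 Renal carcinoma cells carrying a 4×HRE-driven PEST-destabilised firefly luciferase were treated a day after seeding with eleven 2-fold compound dilutions (0.1% DMSO) for 24 h at 37° C. BrightGlo luminescence, background-subtracted and expressed as % of DMSO control, was fitted four-parametrically for IC50.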
# [3] = target: HIF2α PAS-B domain (236-350, biotinylated on the N-terminus) (Homo sapiens (Human), UniProt Q99814)
# HIF2α PAS-B domain (236-350, biotinylated on the N-terminus), sequence (Q99814 236-350): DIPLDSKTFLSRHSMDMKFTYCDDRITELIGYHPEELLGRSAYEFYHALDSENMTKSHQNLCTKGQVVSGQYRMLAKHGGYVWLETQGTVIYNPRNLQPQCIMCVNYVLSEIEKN
# Procedure: The assay buffer contained 50 mM Tris-HCl pH7 (Sigma), 20 mM NaCl (Fluka), 0.02% BSA (Sigma), 0.005% Triton X-100 (Pierce) and 1 mM DTT (Fluka). After a 30 min incubation period, 5 μL Streptavidin PVT SPA Beads (Perkin Elmer) at 1.2 mg/mL, diluted in the buffer, were added.
Compound,pIC50 [1],pIC50 [2],pIC50 [3]
"Cc1nccc2c1C(F)(F)CC[C@@]21CN2C=C(C(F)(F)F)C=C(OC(F)F)C2=N1 [Example 32, (S)-8-(difluoromethoxy)-8′,8′-difluoro-1′-methyl-6-(trifluoromethyl)-7′,8′-dihydro-3H,6′H-spiro[imidazo[1,2-a]pyridine-2,5′-isoquinoline]]",7.11,6.06,7.89
"[2H]C([2H])([2H])c1nccc2c1C(F)(F)CC[C@@]21CN2C=C(C(F)(F)F)C=C(OC(F)F)C2=N1 [Example 33, (S)-8-(difluoromethoxy)-8′,8′-difluoro-1′-(methyl-d3)-6-(trifluoromethyl)-7′,8′-dihydro-3H, 6′H-spiro[imidazo[1,2-a]pyridine-2,5′-isoquinoline]]",7.11,6.26,7.77
"COc1nccc2c1C(F)(F)CC[C@@]21CN2C=C(C(F)(F)F)C=C(OC(F)F)C2=N1 [Example 34, (S)-8-(difluoromethoxy)-8′,8′-difluoro-1′-methoxy-6-(trifluoromethyl)-7′,8′-dihydro-3H, 6′H-spiro[imidazo[1,2-a]pyridine-2,5′-isoquinoline]]",6.71,5.84,7.64
"N#CC1=CN2C[C@@]3(CCCc4cc(F)ccc43)N=C2C(OC(F)F)=C1 [Example 35, (S)-8-(difluoromethoxy)-6′-fluoro-3′,4′-dihydro-2′H,3H-spiro[imidazo[1,2-a]pyridine-2,1′-naphthalene]-6-carbonitrile]",7.08,6.57,8.05
"FC(F)OC1=CC(C(F)(F)F)=CN2C[C@@]3(CCCc4c3ccnc4Cl)N=C12 [Example 36, (S)-1′-chloro-8-(difluoromethoxy)-6-(trifluoromethyl)-7′,8′-dihydro-3H,6′H-spiro[imidazo[1,2-a]pyridine-2,5′-isoquinoline]]",7.14,6.83,8.22
"FC(F)OC1=CC(C(F)(F)F)=CN2C[C@@]3(CCCc4cc(Cl)ncc43)N=C12 [Example 37, (S)-3′-chloro-8-(difluoromethoxy)-6-(trifluoromethyl)-6′,7′-dihydro-3H,5′H-spiro[imidazo[1,2-a]pyridine-2,8′-isoquinoline]]",7.05,6.51,7.60
"N#Cc1ccc2c(c1)CCC[C@@]21CN2C=C(C(F)(F)F)C=C(OC(F)F)C2=N1 [Example 38, (S)-8-(difluoromethoxy)-6-(trifluoromethyl)-3′,4′-dihydro-2′H,3H-spiro[imidazo[1,2-a]pyridine-2,1′-naphthalene]-6′-carbonitrile]",7.08,6.49,7.92
"Fc1c(Br)ccc2c1OCC[C@@]21CN2C=C(C(F)(F)F)C=C(OC(F)F)C2=N1 [Example 39, (S)-7-bromo-8′-(difluoromethoxy)-8-fluoro-6′-(trifluoromethyl)-3′H-spiro[chroman-4,2′-imidazo[1,2-a]pyridine]]",7.31,6.60,≥ 8.22
"Fc1c(C(F)(F)F)ccc2c1OCC[C@@]21CN2C=C(C(F)(F)F)C=C(OC(F)F)C2=N1 [Example 40, (S)-8′-(difluoromethoxy)-8-fluoro-6′,7-bis(trifluromethyl)-3′H-spiro[chroman-4,2′-imidazo[1,2-a]pyridine]]",7.30,6.72,8.22
"FC(F)OC1=CC(C(F)(F)F)=CN2C[C@@]3(CCOc4cc(Cl)ccc43)N=C12 [Example 41, (S)-7-chloro-8′-(difluoromethoxy)-6′-(trifluoromethyl)-3′H-spiro[chroman-4,2′-imidazo[1,2-a]pyridine]]",7.27,6.55,7.96
"FCOC1=CC(C(F)(F)F)=CN2C[C@@]3(CCOc4c3ccc(Br)c4F)N=C12 [Example 42, (S)-7-bromo-8-fluoro-8′-(fluoromethoxy)-6′-(trifluoromethyl)-3′H-spiro[chroman-4,2′-imidazo[1,2-a]pyridine]]",7.14,7.02,8.10
"Fc1c(Cl)ccc2c1OCC[C@@]21CN2C=C(C(F)(F)F)C=C(OC(F)F)C2=N1 [Example 43, (S)-7-chloro-8′-(difluoromethoxy)-8-fluoro-6′-(trifluoromethyl)-3′H-spiro[chroman-4,2′-imidazo[1,2-a]pyridine]]",7.23,6.74,8.00
"Fc1ccc2c(c1F)OCC[C@@]21CN2C=C(C(F)(F)F)C=C(OC(F)F)C2=N1 [Example 45, (S)-8′-(difluoromethoxy)-7,8-difluoro-6′-(trifluoromethyl)-3′H-spiro[chroman-4,2′-imidazo[1,2-a]pyridine]]",7.07,6.50,≥ 8.00
"Cc1ccc2c(c1F)OCC[C@@]21CN2C=C(C(F)(F)F)C=C(OC(F)F)C2=N1 [Example 46, (S)-8′-(difluoromethoxy)-8-fluoro-7-methyl-6′-(trifluoromethyl)-3′H-spiro[chroman-4,2′-imidazo[1,2-a]pyridine]]",7.30,7.17,7.89
"Fc1cccc2c1OCC[C@@]21CN2C=C(C(F)(F)F)C=C(OC(F)F)C2=N1 [Example 47, (S)-8′-(difluoromethoxy)-8-fluoro-6′-(trifluoromethyl)-3′H-spiro[chroman-4,2′-imidazo[1,2-a]pyridine]]",7.09,6.16,7.96
"FC(F)OC1=CC(C(F)(F)F)=CN2C[C@@]3(CCOc4c(Cl)cccc43)N=C12 [Example 48, (S)-8-chloro-8′-(difluoromethoxy)-6′-(trifluoromethyl)-3′H-spiro[chroman-4,2′-imidazo[1,2-a]pyridine]]",7.20,6.01,≥ 8.00
"N#CC1=CN2C[C@@]3(CCOc4c3ccc(Br)c4F)N=C2C(OC(F)F)=C1 [Example 49, (S)-7-bromo-8′-(difluoromethoxy)-8-fluoro-3′H-spiro[chroman-4,2′-imidazo[1,2-a]pyridine]-6′-carbonitrile]",6.76,6.01,7.92
"FC(F)OC1=CC(C(F)(F)F)=CN2C[C@@]3(CCOc4cc(Br)ccc43)N=C12 [Example 50, (S)-7-bromo-8′-(difluoromethoxy)-6′-(trifluoromethyl)-3′H-spiro[chroman-4,2′-imidazo[1,2-a]pyridine]]",7.21,6.82,≥ 8.00
"N#CC1=CN2C[C@@]3(CCOc4c3ccc(I)c4F)N=C2C(OC(F)F)=C1 [Example 51, (S)-8′-(difluoromethoxy)-8-fluoro-7-iodo-3′H-spiro[chroman-4,2′-imidazo[1,2-a]pyridine]-6′-carbonitrile]",7.09,6.29,8.05
"Fc1c(Br)ccc2c1OCC[C@@]21CN2C=C(Cl)C=C(OC(F)F)C2=N1 [Example 52, (S)-7-bromo-6′-chloro-8′-(difluoromethoxy)-8-fluoro-3′H-spiro[chroman-4,2′-imidazo[1,2-a]pyridine]]",7.06,6.38,7.96
"FC(F)(F)C1=CN2C[C@@]3(CCOc4cc(C(F)(F)F)ccc43)N=C2C(Cl)=C1 [Example 53, (S)-8′-chloro-6′,7-bis(trifluoromethyl)-3′H-spiro[chroman-4,2′-imidazo[1,2-a]pyridine]]",6.74,6.08,7.85
